# Test results: patent US20250290057A1, “LYTIC AGENT FOR ENTEROCOCCUS FAECALIS” (priority 2022, published 2025)
# Read-outs that look alike come from different tables or passages of the source.
# Tests used:
# E. faecalis isolates = experiment: Minimal inhibitory concentration of antibacterial agents, "Eiken" DP42 dry plate; type: cell-based, Enterococcus faecalis; conditions: for MIC: Enterococcus faecalis
# Method: (§1) The sensitivity to an antibacterial agent for each of the above-described 30 Enterococcus bacterial strains was invenstigated. Specifically, the bacterial strains prepared in 1 McFarland standard with physiological saline were diluted 500-fold with a BHI culture medium, and then aerobically cultured in solid-phase wells of an “Eiken” DP42 dry plate (Eiken Chemical Co., Ltd., Tokyo, Japan) for 24 hours.
# (§2) The minimal inhibitory concentration of any one of the antibacterial agents, i.e., daptomycin (DAP), vancomycin (VCM), teicoplanin (TEIC), and linezolid (LZD), was determined in accordance with the instruction of the product. […] The results obtained by testing resistance to the antibacterial agents of the E. faecalis strains (11 strains) are shown in Table 1 below.
# [1] = tested on: E. faecalis strains JCM5803, JCM8902; experiment: Vancomycin resistance evaluation (method of Example 2 (2)); type: cell-based; parameters: key: resistant: +; nonresistant: −
# Method: as §1, §2
# (§3) The hemolytic activity of each of the bacterial strains was measured with a hemolysis assay using a Nissui Plate Horse Blood Agar medium. The cytolysin-related gene was detected with PCR. The vancomycin resistance was evaluated using the method described in (2) in Example 2. The vanA gene and the vanB gene that are vancomycin-resistant genes were detected with PCR. Furthermore, each bacterial strain was aerobically cultured in a BHI culture medium, and centrifuged at 300×g for 5 minutes for collection. The cell pellets were washed, and resuspended in a HiTrap buffer. The phage-derived endolysin was added at a final concentration of 50 μg/mL to the cell resuspension liquid. The resulting suspension was incubated at 37° C., and the lytic activity was measured, using the presence or absence of a bacterial lump as an index.
# [2] = tested on: E. faecium strain JCM5804; experiment: as above; type: cell-based; parameters: key: resistant: +; nonresistant: −
# Method: as §1, §2, §3
# E. faecium isolates = experiment: Minimal inhibitory concentration of antibacterial agents, "Eiken" DP42 dry plate; type: cell-based, Enterococcus faecium; conditions: all E. faecium (19 strains)
# Method: as §1, §2
smiles,measurement,setting,value
CN[C@H](CC(C)C)C(=O)N[C@H]1C(=O)N[C@@H](CC(N)=O)C(=O)N[C@H]2C(=O)N[C@H]3C(=O)N[C@H](C(=O)N[C@H](C(=O)O)c4cc(O)cc(O)c4-c4cc3ccc4O)[C@H](O)c3ccc(c(Cl)c3)Oc3cc2cc(c3O[C@@H]2O[C@H](CO)[C@@H](O)[C@H](O)[C@H]2O[C@H]2C[C@](C)(N)[C@H](O)[C@H](C)O2)Oc2ccc(cc2Cl)[C@H]1O [vancomycin],MIC,"E. faecalis isolates; read-out: Minimal inhibitory concentration, E. faecalis strain OCU009_35_4",2 µg/mL
same,MIC,"E. faecalis isolates; read-out: Minimal inhibitory concentration, E. faecalis strain OCU009_35_10",4 µg/mL
same,MIC,"E. faecalis isolates; read-out: Minimal inhibitory concentration, E. faecalis strain OCU015_56_6",2 µg/mL
same,MIC,"E. faecalis isolates; read-out: Minimal inhibitory concentration, E. faecalis strain OCU015_56_7",2 µg/mL
same,MIC,"E. faecalis isolates; read-out: Minimal inhibitory concentration, E. faecalis strain OCU031_7_1",4 µg/mL
same,MIC,"E. faecalis isolates; read-out: Minimal inhibitory concentration, E. faecalis strain OCU031_7_9",2 µg/mL
same,MIC,"E. faecalis isolates; read-out: Minimal inhibitory concentration, E. faecalis strain OCU031_14_5",4 µg/mL
same,MIC,"E. faecalis isolates; read-out: Minimal inhibitory concentration, E. faecalis strain OCU031_14_8",2 µg/mL
same,MIC,"E. faecalis isolates; read-out: Minimal inhibitory concentration, E. faecalis strain OCU031_pre_6",2 µg/mL
same,MIC,"E. faecalis isolates; read-out: Minimal inhibitory concentration, E. faecalis strain OCU031_pre_7",2 µg/mL
same,MIC,"E. faecalis isolates; read-out: Minimal inhibitory concentration, E. faecalis strain OCU031_pre_10",2 µg/mL
same,Sensitivity of strains to antibacterial agent,E. faecalis isolates; all E. faecalis strains (11 strains),exhibited sensitivity
same,Vancomycin-resistance,[1]; strain JCM5803,−
same,Vancomycin-resistance,[1]; strain JCM8902,+
same,Vancomycin-resistance,[2],−
same,Sensitivity of strains to antibacterial agent,E. faecium isolates,exhibited sensitivity
